Measured values from publication PMC8026324, “In Vitro Antiplasmodial, Heme Polymerization, and Cytotoxicity of Hydroxyxanthone Derivatives” (Journal of Tropical Medicine, 2021).
One block for each compound: values may come before it.

Experiments:
[1] = tested on: Plasmodium falciparum FCR-3 (chloroquine-resistant strain); test: In vitro antiplasmodial activity assay, microscopic method, strain FCR-3; assay type: cell-based; details: for IC50: 72 hours incubation, microscopic method, read-out: IC50 on P. falciparum FCR-3; for antiplasmodial activity category on P. falciparum FCR-3: category by IC50
Description: (§1) The test of antiplasmodial activity began with the culture of P. falciparum 3D-7 and FCR-3 using the modified Trager and Jensen method. The plasmodium was cultured in human O red blood cells diluted to 3% haematocrit in RPMI 1640 medium complemented with 10% human O serum. The medium was made by adding 10.43 g of powder RPMI 1640, 6 g HEPES, 2 g NaHCO3, 25 mg gentamycin, and sterile distilled water up to 1 L. The medium pH was adjusted so that it reached ±7.2. It was sterilized using a 0.22 μm filter and stored at 4°C. The complete plasmodium culture medium was made by adding human serum with a concentration of 10% in the medium. The plasmodium culture was incubated in candle jar in an incubator with a temperature of 37°C and was observed every 24 hours.
(§2) The plasmodium was synchronized to obtain the ring stage by adding 5% of D-sorbitol. The plasmodium was transferred from culture flask to a conical tube, and then it was centrifuged with a speed of 1000 rpm for 10 minutes. After the supernatant was disposed, the sterile 5% sorbitol was added and incubated for 10 minutes at a temperature of 37°C. The plasmodium suspension was centrifuged again; the supernatant was disposed and the plasmodium was washed by adding culture medium. Then, the plasmodium suspension was centrifuged again, and the supernatant was discarded, resulting in a plasmodium in ring stage only. The parasitemia was calculated from a thin blood preparation. The test used 1% parasitemia at 2% haematocrit in RPMI medium which complemented with 10% human O serum.
(§3) Each testing compound was dissolved in RPMI medium. The testing compound in various concentrations with volume of 100 μL was incorporated into the 96-well microplate, and then 100 μL of Plasmodium suspension was added. Each series of concentrations was replicated three times. The microplate was incubated at a temperature of 37°C for 72 hours. At the end of the incubation, a thin blood smear was made using 10% Giemsa stain and observed under a light microscope at 1000x magnification. The percentage of parasitemia (counting a minimum of 1,000 erythrocytes) was calculated from the preparation of thin blood and then used to calculate the percentage of plasmodium growth inhibition. […] Antiplasmodial activity is expressed as IC50, which is the concentration of a compound that is required for 50% inhibition of plasmodium growth. The IC50 value was calculated by probit analysis using SPSS software (IBM Corp., Chicago). The lower the IC50 value obtained, the greater the antiplasmodial activity.

Hela = tested on: Hela; parameters: method as in earlier work; details: cited from earlier work
MCF-7 = tested on: MCF-7; parameters: method as in earlier work; details: cited from earlier work
WIDR = tested on: WIDR; parameters: method as in earlier work; details: cited from earlier work
Vero cells = test: In vitro cytotoxicity test, MTT assay on Vero cell line; assay type: cell-based; details: for IC50: MTT assay; for Selectivity index 3D-7: ratio IC50 on Vero cell/IC50 on P. falciparum 3D-7; for Selectivity index FCR-3: ratio IC50 on Vero cell/IC50 on P. falciparum FCR-3
Description: The in vitro cytotoxicity test was conducted using the 3-(4,5-dimethylthiazol-2-yl)2,5-diphenyltetrazolium bromide (MTT) assay method on Vero cell line culture using the Anderson et al.'s modified method.
The cell was removed from the cryo medium. Then, the cell was thawed at 37°C. The liquid cell was subsequently transferred to the tube and a culture medium was added to a volume of 10 mL. Then, the suspension was centrifuged for 15 minutes so that it would form cell pellets. The supernatant was removed and 1 mL of culture medium was added to the cell pellets. Finally, the suspension was transferred to the Petri dish and incubated in the incubator with 5% of CO2 at 37°C.
The medium of Vero cell culture was removed, and then the cell was washed using a PBS solution with a volume of PBS ± 1/2 of the initial medium volume. This step was done twice and 1 mL of trypsin 0.25% was added. Subsequently, the cell was incubated in the CO2 incubator at 37°C for 3 minutes. Then, the cell was resuspended using 2 mL of culture medium and PBS solution was added up to 10 mL. The suspension was centrifuged for 15 minutes so that it formed pellets. Pellets were added with 1 mL of culture medium and resuspended. Take 10 μL of the cell suspension and density of cells was calculated.
Then, the cell was added with culture medium to 10 mL. A total of 100 μL of such suspensions was transferred into each well of the 96-well microplate, but three of the wells were emptied as medium controls. Subsequently, the microplate was incubated in a 5% CO2 incubator at 37°C.
Each hydroxyxanthone derivative compound was dissolved in DMSO, and a variety of concentrations were prepared in the medium. Each concentration of the testing compound was added into the 96-well microplate triplicately. Cell control and medium control were not given a testing compound solution. The medium control remained blank, while the cell control contained culture medium only. […] Then, the cell was incubated in a 5% CO2 incubator at 37°C for 24 hours.
After the cell was incubated for 24 hours, the medium was discarded and washed with PBS. Then, each well was added with 100 μL of 5 mg/mL of MTT solution. The 96-well microplate was incubated again in the incubator of CO2 at 37°C for 4 hours. Then, 100 μL of 10% of SDS in 0.01 MHCl was added. The cells were placed in a dark room at room temperature for 24 hours.
The absorbance was measured using the enzyme-linked immunosorbent assay (ELISA) reader at 595 nm wavelength. The cytotoxicity test on the Vero cells was done by calculating the percentage of Vero cell inhibition of the absorption value of the test compound, cell control, and medium control. The cytotoxic effect was expressed as IC50. The IC50 value was obtained from the probit analysis by using SPSS software (IBM Corp., Chicago). The degree of selectivity was expressed as a selectivity index. The selectivity index was obtained from the ratio between the IC50 cytotoxic effect on Vero cells and IC50 antiplasmodial activity on Plasmodium. A compound is said to be safe if the value of the selectivity index is >10 [20].

[2] = tested on: Plasmodium falciparum 3D-7 (chloroquine-sensitive strain); test: In vitro antiplasmodial activity assay, microscopic method, strain 3D-7; assay type: cell-based; details: for IC50: 72 hours incubation, microscopic method, read-out: IC50 on P. falciparum 3D-7; for antiplasmodial activity category on P. falciparum 3D-7: category by IC50
Description: as §1, §2, §3

[3] = Chlorocebus sabaeus, Vero, 24 h, 24 hours incubation

IC50 ([1]; Plasmodium falciparum, FCR3): 81.8 ± 5.78 µM
IC50 ([2]; Plasmodium falciparum): 71.78 ± 0.31 µM
SMILES: O=c1c2ccc(O)cc2oc2cccc(O)c12 [HX2, 1,6-dihydroxyxanthone]
inhibition at 54.78 µM ([1]; Plasmodium falciparum, FCR3, 54.78 μM, read-out: Growth inhibition of P. falciparum Strain FCR-3): 47.2 ± 0.687%
inhibition at 109.55 µM ([1]; Plasmodium falciparum, FCR3, 109.55 μM, read-out: Growth inhibition of P. falciparum Strain FCR-3): 50.2 ± 2.63%
inhibition at 219.11 µM ([1]; Plasmodium falciparum, FCR3, 219.11 μM, read-out: Growth inhibition of P. falciparum Strain FCR-3): 67.1 ± 2.76%
inhibition at 438.21 µM ([1]; Plasmodium falciparum, FCR3, 438.21 μM, read-out: Growth inhibition of P. falciparum Strain FCR-3): 74.2 ± 1.32%
inhibition at 876.42 µM ([1]; Plasmodium falciparum, FCR3, 876.42 μM, read-out: Growth inhibition of P. falciparum Strain FCR-3): 87.6 ± 2.24%
antiplasmodial activity category on P. falciparum FCR-3 [1]: moderate (moderate (IC50 20–100 μM))
cytotoxicity on Hela (in words) (Hela): weak
cytotoxicity on MCF-7 (in words) (MCF-7): weak
cytotoxicity on WIDR (in words) (WIDR): weak
IC50 (Vero cells; 24 hours incubation): 308 µM
IC50 (Vero cells; [3]): 390 µM
inhibition at 54.13 µM (Vero cells; Chlorocebus sabaeus, Vero, 24 h, 54.13 μM, read-out: Vero cell growth inhibition after 24 hours incubation): 15.6%
inhibition at 108.26 µM (Vero cells; Chlorocebus sabaeus, Vero, 24 h, 108.26 μM, read-out: Vero cell growth inhibition after 24 hours incubation): 31.8%
inhibition at 216.86 µM (Vero cells; Chlorocebus sabaeus, Vero, 24 h, 216.86 μM, read-out: Vero cell growth inhibition after 24 hours incubation): 38.9%
inhibition at 433.73 µM (Vero cells; Chlorocebus sabaeus, Vero, 24 h, 433.73 μM, read-out: Vero cell growth inhibition after 24 hours incubation): 59.8%
inhibition at 867.45 µM (Vero cells; Chlorocebus sabaeus, Vero, 24 h, 867.45 μM, read-out: Vero cell growth inhibition after 24 hours incubation): 67%
inhibition at 1734.91 µM (Vero cells; Chlorocebus sabaeus, Vero, 24 h, 1734.91 μM, read-out: Vero cell growth inhibition after 24 hours incubation): 86.1%
IC50 (Vero cells; Chlorocebus sabaeus, Vero): 88.9 µg/mL
Selectivity index 3D-7 (Vero cells): 4.30
Selectivity index FCR-3 (Vero cells): 3.77
inhibition at 54.78 µM ([2]; Plasmodium falciparum, 54.78 μM, read-out: Growth inhibition of P. falciparum Strain 3D-7): 49.2 ± 1.61%
inhibition at 109.55 µM ([2]; Plasmodium falciparum, 109.55 μM, read-out: Growth inhibition of P. falciparum Strain 3D-7): 54.8 ± 2.43%
inhibition at 219.11 µM ([2]; Plasmodium falciparum, 219.11 μM, read-out: Growth inhibition of P. falciparum Strain 3D-7): 67.16 ± 0.601%
inhibition at 438.21 µM ([2]; Plasmodium falciparum, 438.21 μM, read-out: Growth inhibition of P. falciparum Strain 3D-7): 73.62 ± 0.713%
inhibition at 876.42 µM ([2]; Plasmodium falciparum, 876.42 μM, read-out: Growth inhibition of P. falciparum Strain 3D-7): 90.56 ± 0.665%
antiplasmodial activity category on P. falciparum 3D-7 [2]: moderate (moderate (IC50 20–100 μM))

IC50 ([1]; Plasmodium falciparum, FCR3): 64.1 ± 5.08 µM
IC50 ([2]; Plasmodium falciparum): 27.64 ± 0.19 µM
SMILES: O=c1c2ccc(O)c(O)c2oc2cccc(O)c12 [HX3, 1,5,6-trihydroxyxanthone]
inhibition at 25.59 µM ([1]; Plasmodium falciparum, FCR3, 25.59 μM, read-out: Growth inhibition of P. falciparum Strain FCR-3): 38.3 ± 1.19%
inhibition at 51.19 µM ([1]; Plasmodium falciparum, FCR3, 51.19 μM, read-out: Growth inhibition of P. falciparum Strain FCR-3): 43.13 ± 0.126%
inhibition at 102.38 µM ([1]; Plasmodium falciparum, FCR3, 102.38 μM, read-out: Growth inhibition of P. falciparum Strain FCR-3): 51.92 ± 0.466%
inhibition at 204.75 µM ([1]; Plasmodium falciparum, FCR3, 204.75 μM, read-out: Growth inhibition of P. falciparum Strain FCR-3): 71.9 ± 7.84%
inhibition at 409.5 µM ([1]; Plasmodium falciparum, FCR3, 409.5 μM, read-out: Growth inhibition of P. falciparum Strain FCR-3): 83 ± 1.4%
antiplasmodial activity category on P. falciparum FCR-3 [1]: moderate (moderate (IC50 20–100 μM))
cytotoxicity on Hela (in words) (Hela): weak
cytotoxicity on MCF-7 (in words) (MCF-7): weak
cytotoxicity on WIDR (in words) (WIDR): weak
IC50 (Vero cells; 24 hours incubation): 224 µM
IC50 (Vero cells; [3]): 230 µM
inhibition at 63.88 µM (Vero cells; Chlorocebus sabaeus, Vero, 24 h, 63.88 μM, read-out: Vero cell growth inhibition after 24 hours incubation): 20.7%
inhibition at 127.76 µM (Vero cells; Chlorocebus sabaeus, Vero, 24 h, 127.76 μM, read-out: Vero cell growth inhibition after 24 hours incubation): 39.6%
inhibition at 255.94 µM (Vero cells; Chlorocebus sabaeus, Vero, 24 h, 255.94 μM, read-out: Vero cell growth inhibition after 24 hours incubation): 55.7%
inhibition at 511.88 µM (Vero cells; Chlorocebus sabaeus, Vero, 24 h, 511.88 μM, read-out: Vero cell growth inhibition after 24 hours incubation): 68%
inhibition at 1023.75 µM (Vero cells; Chlorocebus sabaeus, Vero, 24 h, 1023.75 μM, read-out: Vero cell growth inhibition after 24 hours incubation): 79.9%
inhibition at 2047.5 µM (Vero cells; Chlorocebus sabaeus, Vero, 24 h, 2047.50 μM, read-out: Vero cell growth inhibition after 24 hours incubation): 88.9%
IC50 (Vero cells; Chlorocebus sabaeus, Vero): 56.2 µg/mL
Selectivity index 3D-7 (Vero cells): 8.12
Selectivity index FCR-3 (Vero cells): 3.50
inhibition at 25.59 µM ([2]; Plasmodium falciparum, 25.59 μM, read-out: Growth inhibition of P. falciparum Strain 3D-7): 47.3 ± 0.611%
inhibition at 51.19 µM ([2]; Plasmodium falciparum, 51.19 μM, read-out: Growth inhibition of P. falciparum Strain 3D-7): 63.4 ± 0.421%
inhibition at 102.38 µM ([2]; Plasmodium falciparum, 102.38 μM, read-out: Growth inhibition of P. falciparum Strain 3D-7): 68.89 ± 0.151%
inhibition at 204.75 µM ([2]; Plasmodium falciparum, 204.75 μM, read-out: Growth inhibition of P. falciparum Strain 3D-7): 80.92 ± 0.679%
inhibition at 409.5 µM ([2]; Plasmodium falciparum, 409.5 μM, read-out: Growth inhibition of P. falciparum Strain 3D-7): 87.4 ± 1.15%
antiplasmodial activity category on P. falciparum 3D-7 [2]: moderate (moderate (IC50 20–100 μM))
